Counter-ions that a name gives are not always drawn.
Legend:
[1] = biological target: T1, human RORγt ligand binding domain (RORγt LBD) (Homo sapiens, UniProt P51449); experiment: RORγt ThermoFluor assay (thermal shift, ligand binding affinity); conditions: estimated from concentration response of thermal shift
T1 construct: His-tag (N); TurboTEV protease cleavage site (ENLYFQG) (N); made in house; host or cells: E. coli (pHIS1, modified pET vector)
T1 sequence (P51449 with tags, fused parts or gaps): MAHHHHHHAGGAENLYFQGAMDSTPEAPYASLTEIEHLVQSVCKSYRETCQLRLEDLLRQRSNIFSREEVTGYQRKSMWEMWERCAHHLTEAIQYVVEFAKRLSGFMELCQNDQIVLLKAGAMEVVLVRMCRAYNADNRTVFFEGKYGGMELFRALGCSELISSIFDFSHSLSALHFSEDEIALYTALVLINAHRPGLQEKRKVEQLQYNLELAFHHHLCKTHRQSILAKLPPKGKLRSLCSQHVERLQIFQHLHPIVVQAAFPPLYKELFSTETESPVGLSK
Procedure, shortened: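 Thermal shift of 0.065 mg/mL RORγt with 60 μM 1,8-ANS in 100 mM Hepes pH 7.0, 10 mM NaCl, 2.5 mM GSH, 0.002% Tween-20. Compounds in 1:2 series from 10 mM DMSO stock. Dye fluorescence (500 nm emission) tracked versus temperature; ΔTm used to derive KD.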

human RORγt LBD = biological target: T2, human RORγt LBD (Homo sapiens, UniProt P51449); experiment: RORγt reporter assay (GAL4-RORγt LBD luciferase in HEK293T cells); format: cell-based; conditions: for IC50: HEK293T cells, 24 hours compound treatment; for inhibition at 6 µM: HEK-293T, read-out: RORγt reporter Assay, % inhibition @ 6 μM, HEK293T cells, 6 μM compound
T2 construct: expressed in transfected cells
T2 sequence (P51449 258-518): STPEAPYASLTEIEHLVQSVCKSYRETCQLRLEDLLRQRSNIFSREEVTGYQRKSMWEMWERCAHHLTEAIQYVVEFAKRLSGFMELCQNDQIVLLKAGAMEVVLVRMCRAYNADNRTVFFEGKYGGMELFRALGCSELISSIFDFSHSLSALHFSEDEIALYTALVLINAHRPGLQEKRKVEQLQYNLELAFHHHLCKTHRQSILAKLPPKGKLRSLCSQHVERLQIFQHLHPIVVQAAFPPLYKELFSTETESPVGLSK
Procedure, shortened: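 Read-out is the firefly-to-renilla luciferase ratio versus compound concentration, after 24 h compound exposure of cells in phenol-red-free DMEM/5% lipid-reduced FCS. Cells were HEK293T bulk-transfected with a GAL4-responsive firefly reporter (pGL4.31) and GAL4 DBD–wild-type human RORγt LBD fusion (pBIND, renilla as transfection/viability control).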

[2] = tested on: IL-17 production by CD4 T cells; experiment: Human Th17 assay (IL-17 production by CD4 T cells under Th17 differentiation conditions); format: cell-based; conditions: Homo sapiens, CD4+ T, 72 h, IL-17 in supernatant after 3 days
Procedure, shortened: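 Primary CD4+ T cells from healthy-donor PBMC, preincubated 1 h with titrated compound (0.2% DMSO), then activated with anti-CD3/CD28 beads plus anti-IL4, anti-IFNγ, IL1β, IL23, IL6, TGFβ and IL2.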

Row | Structure (SMILES) | Kd [1] [nM] | IC50 (human RORγt LBD) [nM] | inhibition at 6 µM (human RORγt LBD) [%] | IC50 [2] [nM]
1 | COc1cccc(C(O)(c2ccc(C)nc2)c2ccc3nc(Cl)c(-c4ccccc4)c(Cl)c3c2)c1 (centres unmarked) [Example 69, (2,4-Dichloro-3-phenylquinolin-6-yl)(3-methoxyphenyl)(6-methylpyridin-3-yl)methanol•TFA] | 300 | 150 | 99 | 610
2 | Cc1ccc(C(O)(c2cccc(Cl)c2)c2ccc3nc(Cl)c(-c4ccccc4)c(Cl)c3c2)cn1 (centres unmarked) [Example 70, (3-Chlorophenyl)(2,4-dichloro-3-phenylquinolin-6-yl)(6-methylpyridin-3-yl)methanol•TFA] | 770 | 47 | 95 | 630
3 | Cc1ccc(C(O)(c2cccc(F)c2)c2ccc3nc(Cl)c(-c4ccccc4)c(Cl)c3c2)cn1 (centres unmarked) [Example 71, (2,4-Dichloro-3-phenylquinolin-6-yl)(3-fluorophenyl)(6-methylpyridin-3-yl)methanol•TFA] | 310 | 82 | 94 | 690
4 | Cn1cncc1C(O)(c1ccncc1)c1ccc2nc(Cl)c(-c3ccccc3)c(N3CCC(O)CC3)c2c1 (centres unmarked) [Example 73, 1-{2-Chloro-6-[hydroxy(1-methyl-1H-imidazol-5-yl)pyridin-4-ylmethyl]-3-phenylquinolin-4-yl}piperidin-4-ol•TFA] | 18 | 360 | 88 | 1200
5 | CCCCN(C)c1nc2ccc(C(O)(c3ccncc3)c3cncn3C)cc2c(Cl)c1-c1ccccc1 (centres unmarked) [Example 76, {2-[Butyl(methyl)amino]-4-chloro-3-phenylquinolin-6-yl}(1-methyl-1H-imidazol-5-yl)pyridin-4-ylmethanol•TFA] | 2.3 | 4.9 | 100 | 40
6 | COc1nc2ccc(C(O)(c3cccnc3)c3cccc(Cl)c3)cc2c(Cl)c1-c1ccccc1 (centres unmarked) [Example 80, (4-Chloro-2-methoxy-3-phenylquinolin-6-yl)(3-chlorophenyl)pyridin-3-ylmethanol•TFA] | 55 | 25 | 89 | 120
7 | CC(C)Oc1nc2ccc(C(O)(c3cccnc3)c3cccc(Cl)c3)cc2c(Cl)c1-c1ccccc1 (centres unmarked) [Example 84, [4-Chloro-2-(1-methylethoxy)-3-phenylquinolin-6-yl](3-chlorophenyl)pyridin-3-ylmethanol•TFA] | 1400 | 890 | 73 | 1300
8 | Cc1cc(C(O)(c2ccc3nc(Cl)c(-c4ccccc4)c(Cl)c3c2)c2cncn2C)cc(Cl)n1 (centres unmarked) [Example 87, (2-Chloro-6-methylpyridin-4-yl)(2,4-dichloro-3-phenylquinolin-6-yl)(1-methyl-1H-imidazol-5-yl)methanol•TFA] | 0.11 | 5.3 | 105 | ~2
9 | CCOc1nc2ccc(C(O)(c3ccncc3)c3cncn3C)cc2c(Cl)c1-c1ccccc1 (centres unmarked) [Example 88, (4-Chloro-2-ethoxy-3-phenylquinolin-6-yl)(1-methyl-1H-imidazol-5-yl)pyridin-4-ylmethanol•TFA] | 9.6 | 37 | 100 | 68
10 | CC(C)Oc1nc2ccc(C(O)(c3ccncc3)c3cncn3C)cc2c(Cl)c1-c1ccccc1 (centres unmarked) [Example 89, [4-Chloro-2-(1-methylethoxy)-3-phenylquinolin-6-yl](1-methyl-1H-imidazol-5-yl)pyridin-4-ylmethanol•TFA] | 34 | 160 | 99 | 300
11 | CC(C)Oc1nc2ccc(C(O)(c3ccncc3)c3cncn3C)cc2c(N(C)C)c1-c1ccccc1 (centres unmarked) [Example 90, [4-(Dimethylamino)-2-(1-methylethoxy)-3-phenylquinolin-6-yl](1-methyl-1H-imidazol-5-yl)pyridin-4-ylmethanol•TFA] | 91 | 300 | 96 | 800
12 | CCOc1nc2ccc(C(O)(c3ccncc3)c3cncn3C)cc2c(N(C)C)c1-c1ccccc1 (centres unmarked) [Example 92, [4-(Dimethylamino)-2-ethoxy-3-phenylquinolin-6-yl](1-methyl-1H-imidazol-5-yl)pyridin-4-ylmethanol•TFA] | 44 | 120 | 100 | 150
13 | CC(=O)N1CCC(C(O)(c2cccnc2)c2ccc3nc(Cl)c(-c4ccccc4)c(Cl)c3c2)CC1 (centres unmarked) [Example 95, (1-Acetylpiperidin-4-yl)(2,4-dichloro-3-phenylquinolin-6-yl)pyridin-3-ylmethanol•TFA] | 23 | 500 | 98 | > 6000
14 | CC(=O)N1CCCC(C(O)(c2cccnc2)c2ccc3nc(Cl)c(-c4ccccc4)c(Cl)c3c2)C1 (centres unmarked) [Example 96, (1-Acetylpiperidin-3-yl)(2,4-dichloro-3-phenylquinolin-6-yl)pyridin-3-ylmethanol•TFA] | 29 | 370 | 98 | > 6000
15 | CCc1nc2ccc(C(O)(c3ccncc3)c3cncn3C)cc2c(N(C)C)c1-c1ccccc1 (centres unmarked) [Example 98, [4-(Dimethylamino)-2-ethyl-3-phenylquinolin-6-yl](1-methyl-1H-imidazol-5-yl)pyridin-4-ylmethanol•TFA] | 36 | 350 | 98 | 300
16 | CCN(CC)c1nc2ccc(C(O)(c3cccnc3)c3cccc(Cl)c3)cc2c(Cl)c1-c1ccccc1 (centres unmarked) [Example 100, (4-Chloro-2-(diethylamino)-3-phenylquinolin-6-yl)(3-chlorophenyl)pyridin-3-ylmethanol•TFA] | 350 | 160 | 95 | 150
17 | CCN(CC)c1nc2ccc(C(O)(c3ccncc3)c3cncn3C)cc2c(C)c1-c1ccccc1 (centres unmarked) [Example 102, [2-(Diethylamino)-4-methyl-3-phenylquinolin-6-yl](1-methyl-1H-imidazol-5-yl)pyridin-4-ylmethanol•TFA] | 41 | 140 | 104 | 150
18 | N#Cc1ccc(C(O)(c2cccc(Cl)c2)c2ccc3nc(C#N)c(-c4ccccc4)c(C#N)c3c2)cn1 (centres unmarked) [Example 104, 6-[(3-Chlorophenyl)(6-cyanopyridin-3-yl)hydroxymethyl]-3-phenylquinoline-2,4-dicarbonitrile•TFA] | 30 | 39 | 100 | 43
19 | CCN(CC)c1nc2ccc(C(O)(c3ccncc3)c3cncn3C)cc2c(OC)c1-c1ccccc1 (centres unmarked) [Example 105, [2-(Diethylamino)-4-methoxy-3-phenylquinolin-6-yl](1-methyl-1H-imidazol-5-yl)pyridin-4-ylmethanol•TFA] | 39 | 150 | 101 | 190
20 | COc1c(-c2ccccc2)c(N(C)C)nc2ccc(C(O)(c3ccncc3)c3cncn3C)cc12 (centres unmarked) [Example 107, [2-(Dimethylamino)-4-methoxy-3-phenylquinolin-6-yl](1-methyl-1H-imidazol-5-yl)pyridin-4-ylmethanol•TFA] | 65 | 59 | 101 | 39
21 | N#Cc1nc2ccc(C(O)(c3ccc(C(N)=O)nc3)c3cccc(Cl)c3)cc2c(C#N)c1-c1ccccc1 (centres unmarked) [Example 112, 5-[(3-Chlorophenyl)(2,4-dicyano-3-phenylquinolin-6-yl)hydroxymethyl]pyridine-2-carboxamide•TFA] | 120 | 380 | 100 | 480
22 | CCN(CC)c1nc2ccc(C(O)(c3cccnc3)c3cccc(Cl)c3)cc2c(C#N)c1-c1ccccc1 (centres unmarked) [Example 113, 6-[(3-Chlorophenyl)(hydroxy)pyridin-3-ylmethyl]-2-(diethylamino)-3-phenylquinoline-4-carbonitrile•TFA] | 1800 | 86 | 101 | 250
23 | Cn1cncc1C(O)(c1cncnc1)c1ccc2nc(Cl)c(-c3ccccc3)c(Cl)c2c1 (centres unmarked) [Example 120, (2,4-Dichloro-3-phenylquinolin-6-yl)(1-methyl-1H-imidazol-5-yl)(pyrimidin-5-yl)methanol] | 130 | 170 | 98 | 400
